According to the NIST ThermoML archive (doi:10.1016/j.fluid.2016.02.011):

Legend:
[1] = refractive index (Na D-line) (dimensionless); settings: 100 kPa, Liquid, minimum deviations angle
[2] = refractive index (Na D-line) (dimensionless); xn = mol fraction of the nth substance listed; settings: 100 kPa, Liquid, minimum deviations angle, x1 = 1

CCCCCC[n+]1ccn(C)c1.O=S(=O)([N-]S(=O)(=O)C(F)(F)F)C(F)(F)F
[1]
Settings	refractive index
282.99 K	1.4329
284.26 K	1.4324
285.8 K	1.432
286.91 K	1.4317
288.05 K	1.4313
289.17 K	1.431
290.22 K	1.4307
291.28 K	1.4304
292.38 K	1.4301
293.39 K	1.4298

CCCCCC[n+]1ccn(C)c1.O=S(=O)([N-]S(=O)(=O)C(F)(F)F)C(F)(F)F + Brc1ccccc1
[2]
Settings	refractive index
282.99 K	1.4329
284.26 K	1.4324
285.8 K	1.432
286.91 K	1.4317
288.05 K	1.4313
289.17 K	1.431
290.22 K	1.4307
291.28 K	1.4304
292.38 K	1.4301
293.39 K	1.4298

Brc1ccccc1 [bromobenzene]
[1]
Settings	refractive index
283 K	1.5612
284.4 K	1.5605
285.75 K	1.5598
286.96 K	1.5591
287.98 K	1.5585
288.99 K	1.558
290.11 K	1.5574
291.22 K	1.5568
292.32 K	1.5563
293.32 K	1.5557
